pEC50: −log10 of the molar value.
Columns and labels:
[1] = Antioxidant activity assessed as ABTS radical scavenging activity incubated for 6 mins under dark condition; format: functional
HUVEC [2] = assay: (§1) Protection against hypoxia/reoxygenation-induced cell injury in HUVEC assessed as late apoptotic cells at 1 uM treated 1 hr prior to hypoxia induction for 12 hrs followed by compound redosing and subsequent reoxygenation for 3 hrs by annexin-V-FITC/propidium iodide staining based flow cytometric analysis (reference value: 22.8%); format: functional, Homo sapiens
HUVEC [3] = assay: as §1, with “at 5” for “at 1”; format: functional, Homo sapiens
HUVEC [4] = assay: Protection against hypoxia/reoxygenation-induced cell injury in HUVEC assessed as cell viability at 5 uM treated 1 hr prior to hypoxia induction for 12 hrs followed by compound redosing and subsequent reoxygenation for 3 hrs by MTT assay (reference value: 35%); format: functional; conditions: Homo sapiens, read-out: Activity
[5] = Antioxidant activity assessed as DPPH radical scavenging activity incubated for 30 mins under dark condition; format: functional

CC[C@@H](C)[C@@]12OC(=O)[C@@]3(O)C[C@@H](O1)c1c(cc(O)c(C)c1O)[C@@]23C
pEC50 [1]: 3.90 to 4.08
Activity (HUVEC [2]): 9.8%
Activity (HUVEC [3]): 9.4%
viability at 5 µM (HUVEC [4]): 70%
pEC50 [5]: 3.90 to 4.08

CC[C@@H](C)[C@]12OC(=O)[C@]3(O)C[C@H](O1)c1c(cc(O)c(C)c1O)[C@]23C
pEC50 [1]: 3.90 to 4.08
pEC50 [5]: 3.90 to 4.08

— ChEMBL document CHEMBL4145569, “Hypoxia-Protective Azaphilone Adducts from Peyronellaea glomerata” (J Nat Prod, 2018)
